From US9242963B2, “Organic compounds” (NOVARTIS AG, priority 2008, dated 2016)

Columns and labels:
[1] = molecular target: T1, CYP11B2 (aldosterone synthase) (Homo sapiens, UniProt P19099); assay: Aldosterone cell secretion in NCI-H295R cells; assay type: cell-based; details: 24 hours incubation with cell stimulant
T1 construct: the NCI-H295R cells have CYP11B2 (aldosterone synthase) and CYP11B1 (steroid 11-hydroxylase); host or cells: NCI-H295R
T1 sequence (P19099 25-503): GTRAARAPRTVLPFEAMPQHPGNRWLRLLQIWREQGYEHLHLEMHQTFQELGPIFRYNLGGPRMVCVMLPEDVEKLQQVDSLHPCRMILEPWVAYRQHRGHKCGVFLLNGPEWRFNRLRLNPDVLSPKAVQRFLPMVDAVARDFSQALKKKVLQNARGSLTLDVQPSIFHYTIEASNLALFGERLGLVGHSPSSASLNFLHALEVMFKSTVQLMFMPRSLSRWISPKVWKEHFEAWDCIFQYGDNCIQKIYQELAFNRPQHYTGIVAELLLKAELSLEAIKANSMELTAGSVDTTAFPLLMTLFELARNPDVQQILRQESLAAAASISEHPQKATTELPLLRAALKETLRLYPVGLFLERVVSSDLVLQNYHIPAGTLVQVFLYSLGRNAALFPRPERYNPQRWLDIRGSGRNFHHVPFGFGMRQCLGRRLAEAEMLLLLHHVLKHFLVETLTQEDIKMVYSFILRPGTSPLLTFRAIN
Excerpt: (§1) The activities of a compound according to the present invention can be assessed by the following in vitro method well-described in the art.
(§2) In particular, the inhibition of aldosterone and cortisol secretion in vitro can be determined by the following assay.
(§3) The cell line NCI-H295R was originally isolated from an adrenocortical carcinoma and has been characterized in the literature through the stimulable secretion of steroid hormones and the presence of the enzymes essential for steroidogenesis. […]
(§4) For in vitro measurement of aldosterone and cortisol activity, human adrenocortical carcinoma NCI-H295R cells are seeded in NBS 96-well plates at a density of 25,000 cells/well in 100 μL of a growth medium containing DMEM/F12 supplemented with 10% FCS, 2.5% Nu-serum, 1 μg ITS/ml, and 1× antibiotic/antimycotic. […] At the end of incubation, the excretion of aldosterone and cortisol into the culture medium can be detected and quantified by commercially available, specific monoclonal antibodies in radioimmunoassays in accordance with the manufacturer's instructions.
(§5) Measurement of aldosterone can also be performed using a 96-well plate format. […] The amount of aldosterone in each sample is calculated by comparing with a standard curve generated using known quantities of the hormone. […]

[2] = molecular target: T2, CYP11B1 (steroid 11-hydroxylase) (Homo sapiens, UniProt P15538); assay: Cortisol cell secretion in NCI-H295R cells; assay type: cell-based; details: 24 hours incubation with cell stimulant
T2 construct: the NCI-H295R cells have CYP11B2 (aldosterone synthase) and CYP11B1 (steroid 11-hydroxylase); host or cells: NCI-H295R
T2 sequence (P15538 25-503): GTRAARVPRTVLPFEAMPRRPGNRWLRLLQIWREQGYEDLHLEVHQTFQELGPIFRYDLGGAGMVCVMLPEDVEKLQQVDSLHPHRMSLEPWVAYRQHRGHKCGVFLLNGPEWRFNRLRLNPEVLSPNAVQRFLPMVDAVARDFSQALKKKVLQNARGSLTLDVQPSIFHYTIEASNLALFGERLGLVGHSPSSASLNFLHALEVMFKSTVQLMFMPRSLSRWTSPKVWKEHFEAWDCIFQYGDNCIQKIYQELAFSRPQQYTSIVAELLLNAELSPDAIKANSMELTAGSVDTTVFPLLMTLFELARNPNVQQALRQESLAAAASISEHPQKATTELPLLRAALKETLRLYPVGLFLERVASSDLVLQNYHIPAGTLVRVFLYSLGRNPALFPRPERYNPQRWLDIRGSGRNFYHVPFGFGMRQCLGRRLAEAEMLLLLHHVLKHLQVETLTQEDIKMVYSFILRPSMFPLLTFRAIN
Excerpt: as §1, §2, §3, §4, §5

Row | IC50 [1] | IC50 [2] | Structure (SMILES)
1 | 32 nM | 600 nM | CCS(=O)(=O)NC(C)c1cncc(-c2c(C#N)c3ccc(Cl)cc3n2C)c1 (racemic) [216 (one enantiomer), (R) and (S)-ethanesulfonic acid {1-[5-(6-chloro-3-cyano-1-methyl-1H-indol-2-yl)-pyridin-3-yl]-ethyl}-amide]
2 | 35 nM | 1230 nM | CCS(=O)(=O)NC(C)c1cncc(-c2c(C#N)c3ccc(Cl)cc3n2C)c1 (racemic) [216 (other enantiomer), (R) and (S)-ethanesulfonic acid {1-[5-(6-chloro-3-cyano-1-methyl-1H-indol-2-yl)-pyridin-3-yl]-ethyl}-amide]
